Data: patent US20260240976A1, “T[…] VACCINES BASED ON VALIDATED TARGET EPITOPES” (Deutsches Krebsforschungszentrum Stiftung des öffentlichen …, priority 2023, published 2026)
Where a SMILES comes first, the peptide text is derived from it.

test system: short-term antigen-specific T cell lines generated from PBMCs; assay: Interferon-γ ELISpot assay on short-term antigen-specific T cell lines; format: cell-based, human; settings: HLA restriction A24

Compound | ELISpot: Immungenicity of the peptide shown by IFN-gamma ELISPOT analysis
83 (TFCCKCDSTL; Human papillomavirus 16) [compound 83] | +

test system: HPV16-positive cells; assay: Cytotoxicity assay (VITAL FR / live-cell imaging-based) with peptide-specific CD8+ T cells; design: species or system human; key: +: cytotox: Ability of peptide-specific T cells to kill HPV16-positive cells.; +*: *highlights data from published resources.; *highlights data from published resources; settings: HLA restriction A02
Method: The flow cytometry based VITAL FR cytotoxicity assay was used as published by Stanke et al. (Stanke et al., 2010) to assess whether peptide-specific T cells are able to specifically kill HPV-transformed target cells. Briefly, two HLA-A2+ cell lines, a HPV16-negative (HPV16−) control cell line (C33A) and a HPV16-positive (HPV16+) target cell line (CaSki) were fluorescently labeled with either FarRed or CFSE and were co-incubated with peptide-specific CD8+ T cells as effector cells. After 48 h co-incubation, the fluorescently labeled cells were analyzed by flow cytometry to determine the surviving cells and calculate the specific cytolytic function of the effector cells by the ratio of target and control cells.
CaSki and C33A cells were fluorescently labeled with CFSE and FarRed, respectively. Cells of both cell lines were harvested and resuspended in plain RPMI medium at a concentration of 1×10^6 cells/mL. For cell labeling, 5 μM CSFE were added to CaSki cells and 0.25 μM FarRed were added to C33A cells. The cells were incubated at 37° C. and the reaction was stopped after 10 min by addition of 50 mL RPMI with 10% FBS. The cells were centrifuged at 300×g for 5 min, the supernatant was discarded and the cells were resuspended in their cell culture medium. The labeled cells were seeded in T25 cell culture flasks with 1-2×10^6 cells/flask.
On the next day, the labeled CaSki and C33A as well as the epitope-specific semi-long-term T cell lines (described in 1.6) were harvested. CD8+ T cells were isolated from the epitope-specific semi-long-term T cell lines using the MACS CD8+ T cell isolation kit (Miltenyi Biotec) according to the manufacturer's protocol for LS columns. The CD8+ T cells were resuspended in T cell medium and added to wells of a F-bottom 96-well plate in serial dilutions to achieve triplicates of 6×10^4, 3×10^4, 1.5×10^4, 0.75×10^4 and 0.375×10^4 cells per well. The CaSki and C33A cells were mixed 1:1 in T cell medium and 3×10^3 cells were added to each well containing T cells. Thereby effector:target (E:T) ratios of […] were achieved. Additionally, triplicates of mixed target cells without T cells were seeded, which is referred to as E:T 0. After 48 h incubation at 37° C., 5% C02, the cells were harvested and analyzed at a BD FACS Canto™ II analyzer using the BD FACS Diva Software Version 6. The obtained data were analyzed with the FlowJo software Version 10 by applying the same gating strategy to all samples. Subsequently, the equations (1) and (2) given below were applied in Excel (Microsoft Office 2016) to calculate specific killing.
Semi long-term T cell lines were set up to obtain high numbers of T cells, which are required for the analysis of epitope specific cytotoxic T cell responses in VITAL FR cytotoxicity assays. Autologous DCs were generated from PBMCs as described in 1.7 and loaded with the desired HPV16 peptide. PBMCs of the same donor were thawed and resuspended in T cell medium supplemented with rhIL-7 (10 ng/mL) and rhIL-15 (20 ng/mL). 1×10^7 PBMCs/well were seeded to a 24-well plate in a total volume of 1 mL/well. Peptide-loaded DCs were added in a ratio of 50:1 (PBMCs:DCs) in 1 mL rhIL-7 (10 ng/mL) and rhIL-15 (20 ng/mL) supplemented T cell medium to achieve a final volume of 2 mL. The cell cultures were fed with rhIL-2 (final concentration: 40 U/mL) every other day. If the medium turned yellow the feeding was combined with a half medium change with 1 mL fresh IL-2 supplemented T cell medium. After eight days, the peptide stimulation with peptide-loaded DCs was repeated and cultivation was continued. On day 15, the T cell lines were harvested and used for CD8+ T cell isolation and cytotoxicity assays.
In addition to the VITAL FR assay described herein above, a newly established live-cell imaging-based cytotoxicity assay was applied. […]

Compound | cytotox: Ability of peptide-specific T cells to kill HPV16-positive cells
CSCC[C@H](NC(=O)[C@H](CC(C)C)NC(=O)[C@H](CC(C)C)NC(=O)[C@H](CC(=O)O)NC(=O)[C@H](CCC(=O)O)NC(=O)[C@H](CC(C)C)NC(=O)[C@@H](NC(=O)[C@@H](N)CCCNC(=N)N)[C@@H](C)O)C(=O)NCC(=O)N[C@H](C(=O)N[C@@H](CC(C)C)C(=O)O)[C@@H](C)O [compound 19] (H-RTLEDLLMGTL-OH) | +
CSCC[C@H](NC(=O)[C@@H](N)Cc1ccc(O)cc1)C(=O)N[C@@H](CC(C)C)C(=O)N[C@@H](CC(=O)O)C(=O)N[C@@H](CC(C)C)C(=O)N[C@@H](CCC(N)=O)C(=O)N1CCC[C@H]1C(=O)N[C@@H](CCC(=O)O)C(=O)N[C@H](C(=O)N[C@H](C(=O)N[C@@H](CC(=O)O)C(=O)O)[C@@H](C)O)[C@@H](C)O [compound 15] | +
CC(C)C[C@H](NC(=O)[C@@H](N)CCCNC(=N)N)C(=O)N[C@@H](CS)C(=O)N[C@H](C(=O)N[C@@H](CCC(N)=O)C(=O)N[C@@H](CO)C(=O)N[C@H](C(=O)N[C@@H](Cc1c[nH]cn1)C(=O)N[C@H](C(=O)O)C(C)C)[C@@H](C)O)C(C)C [compound 17] (H-RLCVQSTHV-OH) | +
CC[C@H](C)[C@H](N)C(=O)N[C@@H](CCCNC(=N)N)C(=O)N[C@H](C(=O)N[C@@H](CC(C)C)C(=O)N[C@@H](CCC(=O)O)C(=O)N[C@@H](CC(=O)O)C(=O)N[C@@H](CC(C)C)C(=O)N[C@@H](CC(C)C)C(=O)N[C@@H](CCSC)C(=O)NCC(=O)N[C@H](C(=O)O)[C@@H](C)O)[C@@H](C)O [compound 52] (H-IRTLEDLLMGT-OH) | +
CSCC[C@H](NC(=O)[C@@H](N)Cc1ccc(O)cc1)C(=O)N[C@@H](CC(C)C)C(=O)N[C@@H](CC(=O)O)C(=O)N[C@@H](CC(C)C)C(=O)N[C@@H](CCC(N)=O)C(=O)N1CCC[C@H]1C(=O)N[C@@H](CCC(=O)O)C(=O)O [compound 32] (H-YMLDLQPE-OH) | +
CSCC[C@H](N)C(=O)N[C@@H](CC(C)C)C(=O)N[C@@H](CC(=O)O)C(=O)N[C@@H](CC(C)C)C(=O)N[C@@H](CCC(N)=O)C(=O)N1CCC[C@H]1C(=O)N[C@@H](CCC(=O)O)C(=O)N[C@H](C(=O)O)[C@@H](C)O [compound 16] (H-MLDLQPET-OH) | +
CC[C@H](C)[C@H](NC(=O)[C@H](CC(=O)O)NC(=O)[C@H](Cc1c[nH]cn1)NC(=O)[C@@H](NC(=O)[C@@H](NC(=O)[C@@H](N)[C@@H](C)O)[C@@H](C)O)[C@@H](C)CC)C(=O)N[C@H](C(=O)N[C@@H](CC(C)C)C(=O)N[C@@H](CCC(=O)O)C(=O)N[C@@H](CS)C(=O)N[C@H](C(=O)O)C(C)C)[C@@H](C)CC [compound 49] (H-TTIHDIILECV-OH) | +
CC[C@H](C)[C@H](NC(=O)[C@@H]1CCCN1C(=O)[C@H](CS)NC(=O)[C@@H](NC(=O)[C@@H](NC(=O)CNC(=O)[C@H](CC(C)C)NC(=O)[C@@H](NC(=O)CNC(=O)[C@@H](N)CCSC)[C@@H](C)O)[C@@H](C)CC)C(C)C)C(=O)O [compound 33] (H-MGTLGIVCPI-OH) | +
CC[C@H](C)[C@H](NC(=O)[C@@H]1CCCN1C(=O)[C@H](CS)NC(=O)[C@@H](NC(=O)[C@@H](NC(=O)CNC(=O)[C@H](CC(C)C)NC(=O)[C@@H](NC(=O)CNC(=O)[C@H](CCSC)NC(=O)[C@@H](N)CC(C)C)[C@@H](C)O)[C@@H](C)CC)C(C)C)C(=O)O [compound 25] (H-LMGTLGIVCPI-OH) | +
CC[C@H](C)[C@H](NC(=O)CNC(=O)[C@H](CC(C)C)NC(=O)[C@@H](NC(=O)CNC(=O)[C@H](CCSC)NC(=O)[C@H](CC(C)C)NC(=O)[C@@H](N)CC(C)C)[C@@H](C)O)C(=O)N[C@H](C(=O)N[C@@H](CS)C(=O)N1CCC[C@H]1C(=O)O)C(C)C [compound 44] (H-LLMGTLGIVCP-OH) | +
CC[C@H](C)[C@H](NC(=O)CNC(=O)[C@H](CC(C)C)NC(=O)[C@@H](NC(=O)CNC(=O)[C@H](CCSC)NC(=O)[C@H](CC(C)C)NC(=O)[C@H](CC(C)C)NC(=O)[C@H](CC(=O)O)NC(=O)[C@@H](N)CCC(=O)O)[C@@H](C)O)C(=O)N[C@H](C(=O)O)C(C)C [compound 21] (H-EDLLMGTLGIV-OH) | +

same assay, conditions: HLA restriction A24

Compound | cytotox: Ability of peptide-specific T cells to kill HPV16-positive cells
83 (TFCCKCDSTL; Human papillomavirus 16) [compound 83] | +
